Measured values published in patent publication US20210128740A1, “HDAC INHIBITORS-BASED ANTIBODY DRUG CONJUGATES (ADCs) AND USE IN THERAPY” (ALFASIGMA S.P.A., priority 2017, published 2021).

Columns and labels:
Design in all cases: species or system mice
[1] = test system: NCI-H1975 non-small cell lung carcinoma; test: In vivo antitumor effect against s.c. NCI-H1975 non-small cell lung cancer; details: 120 mg/kg, ip, q4dx4
Procedure: Nude Nu/Nu female mice (from Charles River, Italy) were given a single subcutaneous injection of 5×10^6 NCI-H1975 non-small cell lung carcinoma cells suspended in 100 μL cell culture medium RPMI supplemented with 10% FBS. […] Vehicle group was treated by PBS. Tumor growth was measured with a caliper and tumor volume was calculated using the formula length (mm)×width 2 (mm)/2. The tumor inhibition was calculated according to the equation: % TVI=100−(mean tumor volume of treated group/mean tumor volume of control group)×100. Toxicity was evaluated on the basis of the body weight reduction.
Animals were euthanized by CO2 inhalation when the tumors reached a volume around 1200 mm^3.

[2] = test system: CAPAN-1 orthotopic pancreatic tumor; test: In vivo antitumor effect against orthotopic CAPAN-1 pancreas cancer; details: 200 mg/kg, ip, q4dx4
Excerpt: Capan-1 (1×10^6) cells were directly injected into pancreas of experimental groups.

[3] = test system: A549 non-small cell lung carcinoma; test: In vivo antitumor effect of combination of Cetuximab with ST7612AA1 vs ADC against s.c. A549 lung cancer (Example 31)
Procedure: The human A549 lung carcinoma cells were cultured in their appropriate complete medium. On the day of tumor injection, cells were harvested from subconfluent cultures by trypsinization, washed with PBS, suspended in PBS and subcutaneously injected into the right flank of immunodeficient mice (5×10^6/100 μL). Treatments started when tumor size was around 80 mm^3 and mice were randomized into the experimental groups (10 mice/group): […]

Compound: CC(=O)SCCCCC[C@H](NC(=O)[C@H]1CCC(=O)N1)C(=O)Nc1ccccc1 [ST7612AA1]
- Antitumor activity [1]: completely inactive
- Tumor growth inhibition [2]: 32%
- Antitumor activity ([3]; 0.1 mg/kg, ip, q4dx4): not effective
- TVI at day 50 ([3]; 0.1 mg/kg, ip, q4dx4): 0, P = 0.95
- TVI at day 56 ([3]; 0.1 mg/kg, ip, q4dx4): 0, P = 0.88
- TVI at day 50 ([3]; 40 mg/kg, po, qdx5/wx3w): 33, P = 0.007
- TVI at day 56 ([3]; 40 mg/kg, po, qdx5/wx3w): 35, P = 0.0009
